Results taken from BindingDB's records for doi:10.1016/s0960-894x(98)00149-8 (University of Bristol, 1999).
pIC50, pKi: −log10 of the molar value.

Tests used:
[1] = molecular target: N-succinyl-diaminopimelate aminotransferase (Escherichia coli); assay: Compound was tested for binding affinity against N-Succinyl Diaminopimelic Acid Aminotransferase from Escherichia coli
[2] = molecular target: N-succinyl-diaminopimelate aminotransferase (Escherichia coli); assay: as above; remark: listed apart in the source
[3] = molecular target: N-succinyl-diaminopimelate aminotransferase (Escherichia coli); assay: Compound was tested for 50% inhibition of N-Succinyl Diaminopimelic Acid Aminotransferase (DAP-AT) from Escherichia coli.

| pIC50 [1] | pKi [2] | pIC50 [3] | SMILES |
| --- | --- | --- | --- |
| 6.30 | 7.66 |  | NNC(CCC[C@H](NC(=O)CCC(=O)O)C(=O)O)C(=O)O (stereo partly drawn) [(S)-2-(3-Carboxy-propionylamino)-6-hydrazino-heptanedioic acid] |
|  | 6.77 | 6.10 | CC(=O)N[C@@H](CC(=O)O)C(=O)N[C@@H](CCCC(NN)C(=O)O)C(=O)O (stereo partly drawn) [(S)-2-((S)-2-Acetylamino-3-carboxy-propionylamino)-6-hydrazino-heptanedioic acid] |
| < 1.30 |  |  | CC(=O)N[C@@H](Cc1ccccc1)C(=O)N[C@@H](CCCC(=O)C(=O)O)C(=O)O [dilithium 2-[1-methylcarboxamido-2-phenyl-(1S)-ethylcarboxamido]-6-oxo-(2S)-heptanedioate] |
